Assay results from patent US6338953B1, “Expression of an exogenous gene in a mammalian cell by use of a non-mammalian DNA virus having an altered coat protein” (The General Hospital Corporation, priority 1996, dated 2002).

Key:
HepG2 cells [1] = assay: Colorimetric (ONPG) β-galactosidase assay of cell extracts; format: cell-based, human
Experimental: Adherent cell lines were seeded one day prior to infection. Cells were exposed to virus in 2 ml of medium for 90 minutes, and then the virus-containing medium was removed and replaced with fresh medium. Mock-infected cells were treated with 2 ml medium lacking the viral inoculum.
To measure expression of the reporter gene in the infected cells, colorimetric assays of β-galactosidase enzymatic activity were performed with standard methods (Norton et al., 1985, Molecular & Cellular Biology 5:281-290). Other conventional methods for measuring β-galactosidase activity could be used in lieu of the methods employed in this example. Cell extracts were prepared at one day post-infection. Cell monolayers were rinsed three times with PBS, scraped from the dish, and collected by low-speed centrifugation. The cell pellets were resuspended in 25 mM Tris pH 7.4/0.1 mM EDTA and then subjected to three cycles of freezing in liquid nitrogen and thawing in a 37° C. water bath. The extracts were then clarified by centrifugation at 14,000×g for 5 minutes. Standard conditions for assaying β-galactosidase activity utilized 0.1 ml of cell extract, 0.8 ml of PM-2 buffer, and 0.2 ml of […] (4 mg/ml) in PM-2 buffer for 10 minutes at 37° C. (Norton et al., 1985, Mol. & Cell. Biol. 5:281-290). The reaction was stopped by the addition of 0.5 ml of 1 M sodium carbonate. The amount of substrate hydrolyzed was detected spectrophotometrically at 420 nm, and β-galactosidase enzymatic activity was calculated with conventional methods (Norton et al., 1985, Mol. & Cell. Biol. 5:281-290). The assay was verified to be linear with respect to extract concentration and time. Extract protein concentrations were determined using the Coomassie Plus protein assay (Pierce) with bovine serum albumin as a standard, and the level of β-galactosidase activity was expressed as units of β-galactosidase activity per mg of protein. Other standard protein assays can be used, if desired.
Baculovirus-mediated Gene Transfer is Inhibited by Lysomotropic Agents: To gain insight into the mechanism by which baculoviruses express an exogenous gene in a mammalian cell, the susceptibility of gene expression to a lysomotropic agent was examined. Like other enveloped viruses, the budded form of AcMNPV normally enters cells via endocytosis, followed by low pH-triggered fusion of the viral envelope with the endosomal membrane, thus allowing escape into the cytoplasm (Blissard et al., 1993, J. Virol. 66:6829-6835; Blissard et al., 1990, Ann. Rev. of Entomol. 35:127-155). To determine whether endosome acidification was necessary for baculovirus-mediated gene transfer into mammalian cells, HepG2 cells were infected with RSV-lacZ AcMNPV in the presence of chloroquine, a lysomotropic agent. HepG2 cells were exposed to AcMNPV virus in media containing or lacking inhibitor for 90 minutes, then the virus-containing media were removed and replaced with fresh media containing or lacking inhibitors as listed.
At one day post-infection, the cells were harvested and extracts were assayed for β-galactosidase activity and protein content. Each value in the table represents the average of three independent assays, with the amount of β-galactosidase produced by the RSV-lacZ AcMNPV virus in the absence of inhibitors assigned a value of 100%. β-galactosidase activity was normalized for protein content of each extract. […]

[2] = test system: VGZ3-treated mammalian cells; assay: Inhibition of β-galactosidase expression in VGZ3-treated cells; format: cell-based; conditions: data not shown
Rat Hepatocytes = assay: Colorimetric (ONPG) β-galactosidase assay of cell extracts; conditions: background subtracted
HepG2 cells [3] = format: cell-based, human; conditions: moi 100

| Molecule | effect on de novo expression of β-galactosidase (HepG2 cells [1]; 25 μM continuously present during and after exposure to virus) | effect on β-galactosidase expression (HepG2 cells [1]; added 90 minutes after exposure to the virus) | effect on β-galactosidase expression in VGZ3-treated mammalian cells [2] | inhibition of accumulation of β-galactosidase enzyme activity (HepG2 cells [1]; HepG2 infected with RSV-lacZ virus, drug after infection) | Promoter strength, Rat Hepatocytes −butyrate (Rat Hepatocytes) | X-gal staining of cells not treated with butyrate (HepG2 cells [3]) | Promoter strength, Hep G2 −butyrate (HepG2 cells [1]; moi 100, 24 hours, mock background subtracted) | Promoter strength, Hep G2 +butyrate (HepG2 cells [1]; moi 100, sodium butyrate added 2 hours after infection, 24 hours, background subtracted) |
| --- | --- | --- | --- | --- | --- | --- | --- | --- |
| CCN(CC)CCCC(C)Nc1ccnc2cc(Cl)ccc12 (stereo not drawn) [chloroquine] | completely prevented | only partial inhibition | inhibited β-galactosidase expression |  |  |  |  |  |
| C[C@@H]1C[C@@H]([C@H](O)CC2CC(=O)NC(=O)C2)C(=O)[C@@H](C)C1 [cycloheximide] |  |  | inhibited β-galactosidase expression | more than 90% |  |  |  |  |
| Albumin |  |  |  |  | 0.15 ± 0.08 Units/mg | positively stained cells were detected | 0.0 ± 0.0 Units/mg | 0.08 ± 0.04 Units/mg |
